The subject of this assay is SARS-CoV-2. The experiment in a line: microbe, parasite or virus in culture. The note with it: Severe acute respiratory syndrome coronavirus 2, Vero C1008, 48 h; for IC50: read-out: pIC50 (converted).

Molecules are shown by their SMILES. pIC50: −log10 of the molar value.

As a reminder, the pIC50 is −log10 of the IC50, conventionally taken in molar units. On to `CCCCCCCCCCCCCCCCCCCCCC(=O)O` [BEHENIC ACID], for which the pIC50 was less than 4.70 and the IC50 is more than 20 µM.

Consider `CN1CCN(C2=Nc3ccccc3Oc3ccc(Cl)cc32)CC1` [LOXAPINE], for which the pIC50 was less than 4.70 and the IC50 was more than 20 µM.

`COc1cc(OC)c2c(=O)[nH]c(-c3cc(C)c(OCCO)c(C)c3)nc2c1` [APABETALONE]: the pIC50 is less than 4.70 and the IC50 is more than 20 µM.

As for `CCCC(=O)c1cc(F)ccc1OCC(O)CNC(C)(C)C` (stereo not drawn) [BUTOFILOLOL], the pIC50 is less than 4.70 and the IC50 was more than 20 µM.

Turning to `c1ccc(Cn2cc(CCc3ccncc3)c3ccccc32)cc1` [BENZINDOPYRINE], the pIC50 is less than 4.70 and the IC50 was more than 20 µM.

Take `O=C(CCc1ccc(O)cc1)c1c(O)cc(O)cc1OC1OC(CO)C(O)C(O)C1O` (stereo not drawn): the pIC50 was less than 4.70 and the IC50 was more than 20 µM.

Take `CNCCC(Oc1ccccc1OC)c1ccccc1` (stereo not drawn) [NISOXETINE]: the pIC50 is less than 4.70 and the IC50 was more than 20 µM.

Consider `C[C@@H](N)C12CC3CC(CC(C3)C1)C2`, for which the pIC50 was less than 4.70 and the IC50 is more than 20 µM.

For `Cn1nnc(-c2ccc(-c3ccc(N4C[C@H](COP(=O)(O)O)OC4=O)cc3F)cn2)n1` [TEDIZOLID PHOSPHATE], the pIC50 is less than 4.70 and the IC50 is more than 20 µM.

`C[N+]1(C)CCC(OC(=O)C(O)(c2ccccc2)C2CCCC2)C1` (stereo not drawn) [GLYCOPYRRONIUM]: the pIC50 was less than 4.70 and the IC50 was more than 20 µM.

In the case of `CN(C)CCCC1(c2ccc(F)cc2)OCc2cc(C#N)ccc21` (stereo not drawn) [CITALOPRAM], the pIC50 was less than 4.70 and the IC50 is more than 20 µM.

In the case of `CCOP(=S)(Oc1cccc2cccnc12)c1ccccc1` (stereo not drawn) [QUINTIOFOS], the pIC50 was less than 4.70 and the IC50 was more than 20 µM.

As to `CN(C)[C@@H]1C(O)=C(C(N)=O)C(=O)[C@@]2(O)C(O)=C3C(=O)c4c(O)ccc(Cl)c4[C@@H](O)[C@H]3C[C@@H]12` [DEMECLOCYCLINE], the pIC50 was less than 4.70 and the IC50 is more than 20 µM.

Turning to `CC1(C)[C@@H](OC(=O)CCC(=O)O)CC[C@]2(C)[C@H]3C(=O)C=C4[C@@H]5C[C@@](C)(C(=O)O)CC[C@]5(C)CC[C@@]4(C)[C@]3(C)CC[C@@H]12` [CARBENOXOLONE], the pIC50 was less than 4.70 and the IC50 was more than 20 µM.

On to `O=c1c2ccccc2[se]n1-c1ccccc1` [EBSELEN], for which the pIC50 was less than 4.70 and the IC50 is more than 20 µM.

Take `CC(C)NC[C@H](O)COc1ccc(CC(N)=O)cc1` [ESATENOLOL]: the pIC50 was less than 4.70 and the IC50 is more than 20 µM.

Consider `CC(Oc1ccc(Cl)cc1Cl)C(=O)O` (stereo not drawn) [RAC-DICHLORPROP], for which the pIC50 is less than 4.70 and the IC50 was more than 20 µM.

As for `C/C=C/C[C@@H](C)[C@@H](O)[C@H]1C(=O)N[C@@H](CC)C(=O)N(C)[C@H](C)C(=O)N(CC)[C@@H](C(C)C)C(=O)N[C@@H](C(C)C)C(=O)N(C)[C@@H](CC(C)C)C(=O)N[C@@H](C)C(=O)N[C@H](C)C(=O)N(C)[C@@H](CC(C)C)C(=O)N(C)[C@@H](CC(C)C)C(=O)N(C)[C@@H](C(C)C)C(=O)N1C` [ALISPORIVIR], the pIC50 was less than 4.70 and the IC50 was more than 20 µM.

`CCc1cc(Nc2nc(-c3ccc(-n4cnc(C)c4)c(F)c3)cs2)c(C)cc1C`: the pIC50 was less than 4.70 and the IC50 was more than 20 µM.

`CC/C=C\C/C=C\C/C=C\C/C=C\C/C=C\C/C=C\CCC(=O)O` [DOCONEXENT]: the pIC50 was less than 4.70 and the IC50 was more than 20 µM.

For `CCN(CC)C(=S)S` [DITIOCARB], the pIC50 is less than 4.70 and the IC50 is more than 20 µM.

In the case of `CCC(=O)OCC(=O)[C@@]1(OC(=O)CC)[C@@H](C)C[C@H]2[C@@H]3CCC4=CC(=O)C=C[C@]4(C)[C@@]3(F)[C@@H](O)C[C@@]21C` [BETAMETHASONE DIPROPIONATE], the pIC50 was less than 4.70 and the IC50 is more than 20 µM.

Take `CC(C)CCCC(C)C1CCC2C3C(=O)C=C4CC(O)CCC4(C)C3CCC12C` (stereo not drawn): the pIC50 is less than 4.70 and the IC50 is more than 20 µM.

Consider `N=c1ccn2c(n1)O[C@H]1[C@H](O)[C@@H](CO)O[C@H]12` [ANCITABINE], for which the pIC50 is less than 4.70 and the IC50 is more than 20 µM.

For the compound `CCC1(c2ccccc2)C(=O)NC(=O)N(C)C1=O` (stereo not drawn) [MEPHOBARBITAL], the pIC50 was less than 4.70 and the IC50 is more than 20 µM.

In the case of `N[C@H](CO)C(=O)O` [(D)-SERINE], the pIC50 is less than 4.70 and the IC50 is more than 20 µM.

Regarding `CCOc1ccc(/C=C2\NCCc3cc(OCC)c(OCC)cc32)cc1OCC` [DROTAVERINE], the pIC50 is less than 4.70 and the IC50 is more than 20 µM.

In the case of `Cn1c(=O)c2nc[nH]c2n(C)c1=O` [THEOPHYLLINE], the pIC50 was less than 4.70 and the IC50 was more than 20 µM.

In the case of `C[C@@H]1CC[C@]2(C(=O)O)CC[C@]3(C)C(=CCC4[C@@]5(C)CC[C@H](O)C(C)(C)C5CC[C@]43C)C2[C@H]1C` (stereo partly drawn), the pIC50 was less than 4.70 and the IC50 was more than 20 µM.

`O=C(O)[C@H]1C[C@H]([C@H]2CCCCN2)CN2CCCC[C@H]12`: the pIC50 is less than 4.70 and the IC50 was more than 20 µM.

Regarding `COc1cc2/c(=N/c3ccc(Br)cc3F)nc[nH]c2cc1OCC1CCN(C)CC1` [VANDETANIB], the pIC50 is less than 4.70 and the IC50 was more than 20 µM.

On to `CCSc1ccc2c(c1)N(CCCN1CCN(C)CC1)c1ccccc1S2` [THIETHYLPERAZINE], for which the pIC50 is less than 4.70 and the IC50 is more than 20 µM.

With `C/N=C(/Cc1ccc2ccccc2c1)NC` [NAPACTADINE], the pIC50 was less than 4.70 and the IC50 is more than 20 µM.

Consider `NS(=O)(=O)c1cc2c(cc1Cl)NC(CC1CCCC1)NS2(=O)=O` (stereo not drawn) [CYCLOPENTHIAZIDE], for which the pIC50 is less than 4.70 and the IC50 is more than 20 µM.

For the compound `C/C(=C(\CCOP(=O)(O)O)SC(=O)c1ccccc1)N(C=O)Cc1cnc(C)nc1N` [BENFOTIAMINE], the pIC50 is less than 4.70 and the IC50 is more than 20 µM.

As to `CN1CCC(N(Cc2cccs2)c2ccccc2)CC1` [THENALIDINE], the pIC50 was less than 4.70 and the IC50 is more than 20 µM.

As for `CC(C)COC(=O)c1ccc(N)cc1` [ISOBUTAMBEN], the pIC50 is less than 4.70 and the IC50 was more than 20 µM.

For the compound `CCNC(=O)c1noc(-c2cc(C(C)C)c(O)cc2O)c1-c1ccc(CN2CCOCC2)cc1` [LUMINESPIB], the pIC50 was less than 4.70 and the IC50 was more than 20 µM.

As for `O=C(O)c1ccc(NC2OC(CO)C(O)C(O)C2O)cc1` (stereo not drawn), the pIC50 is less than 4.70 and the IC50 is more than 20 µM.

For the compound `CC1N(CC(=O)c2ccccc2)CCCC1(C)c1cccc(O)c1` (stereo not drawn) [MYFADOL], the pIC50 is less than 4.70 and the IC50 was more than 20 µM.

On to `CN(C)CCOC(c1ccc(Cl)cc1)c1ccccn1` (stereo not drawn) [CARBINOXAMINE], for which the pIC50 is less than 4.70 and the IC50 is more than 20 µM.

As for `CC(C)OC(=O)OCOP(=O)(CO[C@H](C)Cn1cnc2c(N)ncnc21)OCOC(=O)OC(C)C` [TENOFOVIR DISOPROXIL], the pIC50 was less than 4.70 and the IC50 is more than 20 µM.

For the compound `CCCOC(=O)c1ccc(N)cc1` [RISOCAINE], the pIC50 was less than 4.70 and the IC50 was more than 20 µM.

`CCOC(=O)N1CCC(=O)N(c2ccccc2)c2cc(Cl)ccc21` [ARFENDAZAM]: the pIC50 is less than 4.70 and the IC50 is more than 20 µM.

(Values after ChEMBL document CHEMBL4651402, “Screening of ~5500 FDA-approved drugs and clinical candidates for anti-SARS-CoV-2 activity” (2021).)
